Measured values published in ChEMBL document CHEMBL1137066, “Tryptamine-based human beta3-adrenergic receptor agonists. Part 2: SAR of the methylene derivatives” (Bioorg Med Chem Lett, 2004).

What was measured:
[1] = molecular target: T1, Beta-2 adrenergic receptor (Homo sapiens, UniProt P07550); test: (§1) Agonistic activity at human Beta-2 adrenergic receptor at 1000 nM concentration; type: functional
Target sequence in this assay (P07550 whole entry, looked up): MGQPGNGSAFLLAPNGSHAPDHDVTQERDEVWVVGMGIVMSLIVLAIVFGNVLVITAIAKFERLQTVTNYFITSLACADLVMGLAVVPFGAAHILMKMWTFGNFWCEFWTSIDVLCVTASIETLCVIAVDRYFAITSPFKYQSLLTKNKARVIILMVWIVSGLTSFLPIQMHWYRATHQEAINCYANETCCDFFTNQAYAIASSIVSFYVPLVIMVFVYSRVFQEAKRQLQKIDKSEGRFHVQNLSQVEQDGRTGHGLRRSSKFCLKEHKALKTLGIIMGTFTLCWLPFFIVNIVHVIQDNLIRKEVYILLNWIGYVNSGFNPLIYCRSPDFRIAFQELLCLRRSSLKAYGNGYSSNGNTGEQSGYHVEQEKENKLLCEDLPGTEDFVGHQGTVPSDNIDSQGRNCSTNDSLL

[2] = molecular target: T2, Beta-3 adrenergic receptor (Homo sapiens, UniProt P13945); test: Intrinsic activity expressed as percentage of maximal stimulation with isoproterenol of Beta-3 adrenergic receptor; type: functional
Target sequence in this assay (P13945 whole entry, looked up): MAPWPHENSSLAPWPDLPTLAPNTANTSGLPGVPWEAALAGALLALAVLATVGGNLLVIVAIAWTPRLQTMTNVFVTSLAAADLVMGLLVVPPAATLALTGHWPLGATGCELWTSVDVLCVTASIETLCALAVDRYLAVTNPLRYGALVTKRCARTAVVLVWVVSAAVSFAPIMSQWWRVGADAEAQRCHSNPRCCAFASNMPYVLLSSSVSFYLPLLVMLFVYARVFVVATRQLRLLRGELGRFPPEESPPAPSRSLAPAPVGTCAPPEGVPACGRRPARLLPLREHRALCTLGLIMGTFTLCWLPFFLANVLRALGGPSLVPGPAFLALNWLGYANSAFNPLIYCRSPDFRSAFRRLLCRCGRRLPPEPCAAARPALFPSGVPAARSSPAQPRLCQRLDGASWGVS

[3] = molecular target: T3, Beta-1 adrenergic receptor (Homo sapiens, UniProt P08588); test: Agonistic activity at human Beta-1 adrenergic receptor at 1000 nM concentration; type: functional
Target sequence in this assay (P08588 whole entry, looked up): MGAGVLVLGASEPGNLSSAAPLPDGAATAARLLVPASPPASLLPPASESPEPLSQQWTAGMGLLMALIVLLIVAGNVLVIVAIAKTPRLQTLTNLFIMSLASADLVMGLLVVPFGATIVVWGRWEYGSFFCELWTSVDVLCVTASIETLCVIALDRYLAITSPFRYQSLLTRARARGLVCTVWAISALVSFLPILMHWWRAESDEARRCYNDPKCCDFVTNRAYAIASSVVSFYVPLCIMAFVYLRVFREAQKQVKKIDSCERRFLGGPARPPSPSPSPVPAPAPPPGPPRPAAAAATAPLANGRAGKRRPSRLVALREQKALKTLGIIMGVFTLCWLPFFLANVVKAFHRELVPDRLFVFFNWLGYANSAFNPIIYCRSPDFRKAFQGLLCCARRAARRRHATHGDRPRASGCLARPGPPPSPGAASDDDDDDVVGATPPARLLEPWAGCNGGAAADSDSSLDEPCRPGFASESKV

[4] = molecular target: T2, Beta-3 adrenergic receptor; test: Agonistic activity was determined by measuring cAMP accumulation in CHO cells expressing cloned human Beta-3 adrenergic receptor; type: functional, cell-based
Target sequence in this assay (P13945 whole entry): as the sequence (P13945 whole entry, looked up) above

[5] = molecular target: T1, Beta-2 adrenergic receptor; test: Intrinsic activity determined by measuring cAMP accumulation in CHO cells expressing cloned human Beta-2 adrenergic receptor and activity expressed as percentage of maximal stimulation with isoproterenol; type: functional, cell-based
Target sequence in this assay (P07550 whole entry, looked up): as the sequence (P07550 whole entry, looked up) above

[6] = molecular target: T2, Beta-3 adrenergic receptor; test: as §1; type: functional
Target sequence in this assay (P13945 whole entry, looked up): as the sequence (P13945 whole entry, looked up) above

[7] = molecular target: T3, Beta-1 adrenergic receptor; test: Agonistic activity was determined by measuring cAMP accumulation in CHO cells expressing cloned human Beta-1 adrenergic receptor; type: functional, cell-based
Target sequence in this assay (P08588 whole entry): as the sequence (P08588 whole entry, looked up) above

[8] = molecular target: T1, Beta-2 adrenergic receptor; test: Agonistic activity was determined by measuring cAMP accumulation in CHO cells expressing cloned human Beta-2 adrenergic receptor; type: functional, cell-based
Target sequence in this assay (P07550 whole entry): as the sequence (P07550 whole entry, looked up) above

[9] = molecular target: T3, Beta-1 adrenergic receptor; test: Intrinsic activity expressed as percentage of maximal stimulation with isoproterenol of Beta-1 adrenergic receptor; type: functional
Target sequence in this assay (P08588 whole entry, looked up): as the sequence (P08588 whole entry, looked up) above

[10] = molecular target: T3, Beta-1 adrenergic receptor; test: Binding inhibition constant was determined by inhibition of [125I]-iodocyanopindolol binding to Beta-1 adrenergic receptor
Target sequence in this assay (P08588 whole entry): as the sequence (P08588 whole entry, looked up) above

[11] = molecular target: T2, Beta-3 adrenergic receptor; test: Binding inhibition constant was determined by inhibition of [125I]iodocyanopindolol binding to Beta-3 adrenergic receptor
Target sequence in this assay (P13945 whole entry): as the sequence (P13945 whole entry, looked up) above

[12] = molecular target: T1, Beta-2 adrenergic receptor; test: Binding inhibition constant was determined by inhibition of [125I]iodocyanopindolol binding to Beta-2 adrenergic receptor
Target sequence in this assay (P07550 whole entry): as the sequence (P07550 whole entry, looked up) above

Compound | Activity [1] [%] | IA [2] [%] | Activity [3] [%] | EC50 [4] [nM] | Activity [5] [%] | IA [6] [%] | EC50 [7] [nM] | EC50 [8] [nM] | IA [9] [%] | Ki [10] [nM] | Ki [11] [nM] | Ki [12] [nM]
CS(=O)(=O)Oc1cccc2c(CCNC[C@H](O)c3cccc(NS(=O)(=O)c4cccc(F)c4)c3)c[nH]c12 | 8 | 97 | 10 | 2.4 | – | – | – | – | – | – | – | –
CS(=O)(=O)Oc1cccc2c(CCNC[C@H](O)c3cccc(NS(=O)(=O)c4ccccc4N)c3)c[nH]c12 | 9 | 80 | 7 | 3 | – | – | – | – | – | – | – | –
CS(=O)(=O)Oc1cccc2c(CCNC[C@H](O)c3cccc(NS(=O)(=O)c4cccc(Cl)c4)c3)c[nH]c12 | – | – | 11 | 1 | 13 | 96 | – | – | – | – | – | –
CS(=O)(=O)Oc1cccc2c(CCNC[C@H](O)c3cccc(NS(=O)(=O)c4cc(Cl)c(Cl)s4)c3)c[nH]c12 | 18 | 93 | 7 | 6.7 | – | – | – | – | – | – | – | –
C[C@H](Cc1c[nH]c2c(OS(C)(=O)=O)cccc12)NC[C@H](O)c1cccc(NS(=O)(=O)c2cccs2)c1 | – | 97 | – | 0.21 | – | – | 44 | 18 | 36 | 66 | 4 | 48
COc1cccc(S(=O)(=O)Nc2cccc([C@@H](O)CNCCc3c[nH]c4c(OS(C)(=O)=O)cccc34)c2)c1 | 10 | 97 | 11 | 0.94 | – | – | – | – | – | – | – | –
CS(=O)(=O)Oc1cccc2c(CCNC[C@H](O)c3cccc(NS(=O)(=O)c4ccc(N)cc4)c3)c[nH]c12 | 15 | 85 | 5 | 8.4 | – | – | – | – | – | – | – | –
CS(=O)(=O)Oc1cccc2c(CCNC[C@H](O)c3cccc(NS(=O)(=O)c4cccc(N)c4)c3)c[nH]c12 | 6 | 105 | 3 | 0.31 | – | – | – | – | – | 89 | 2.6 | 70
CS(=O)(=O)Oc1cccc2c(CCNC[C@H](O)c3cccc(NS(=O)(=O)CC(F)(F)F)c3)c[nH]c12 | 24 | 49 | 0 | 48 | – | – | – | – | – | – | – | –
CS(=O)(=O)Oc1cccc2c(CCNC[C@H](O)c3cccc(NS(=O)(=O)c4ccc(Br)s4)c3)c[nH]c12 | 17 | 82 | 6 | 2.8 | – | – | – | – | – | – | – | –

Further lines, results first:

Activity [1] [%] | IA [2] [%] | Activity [3] [%] | EC50 [4] [nM] | Activity [5] [%] | IA [6] [%] | EC50 [7] [nM] | EC50 [8] [nM] | IA [9] [%] | Ki [10] [nM] | Ki [11] [nM] | Ki [12] [nM] | Compound
16 | 87 | 6 | 13 | – | – | – | – | – | – | – | – | COc1cccc2c(CCNC[C@H](O)c3cccc(NS(=O)(=O)c4cccs4)c3)c[nH]c12
32 | 81 | 10 | 7.6 | – | – | – | – | – | – | – | – | O=S(=O)(Nc1cccc([C@@H](O)CNCCc2c[nH]c3c(OCc4ccccc4)cccc23)c1)c1cccs1
15 | 86 | 14 | 2 | – | – | – | – | – | – | – | – | CS(=O)(=O)Oc1cccc2c(CCNC[C@H](O)c3cccc(NS(=O)(=O)c4ccccc4)c3)c[nH]c12
23 | 89 | 12 | 1.7 | – | – | – | – | – | 230 | 33 | 223 | CS(=O)(=O)Oc1cccc2c(CCNC[C@H](O)c3cccc(NS(=O)(=O)c4cccs4)c3)c[nH]c12
15 | 73 | 2 | 21 | – | – | – | – | – | – | – | – | O=S(=O)(Nc1cccc([C@@H](O)CNCCc2c[nH]c3ccccc23)c1)c1cccs1
9 | 77 | 3 | 25 | – | – | – | – | – | – | – | – | Cc1cccc2c(CCNC[C@H](O)c3cccc(NS(=O)(=O)c4cccs4)c3)c[nH]c12
